Experimental data from patent US11384099B2, “Pyrazolopyridinone compounds” (Janssen Pharmaceutica NV, priority 2017, dated 2022).
Where a name gives a salt, the structure may show the parent alone.

Experiments:
[1] = system: NIH/3T3 cells transfected with control vector (MOCK); experiment: NIH/3T3 mock cell proliferation assay (CTG, counter assay); type: cell-based; conditions: Mus musculus, NIH3T3; 72-hr incubation, CellTiter Glo; counter assay for general toxicity
Description: NIH/3T3 Mock Cell Proliferation Assay
In day 1, 90 μL of cell suspension (NIH/3T3 cells transfected with the same control vector as in the above two proliferation assays) (total 30,000 cells per well in growth medium (DMEM containing 1% Glutamax, 10% FBS and 1% Pen/Strep)) was seeded in a 96-well plate and then incubated overnight at 37° C. and 5% CO2. In day 2, 10 μL of growth medium containing 10-fold stock solution of testing compound was added into cell cultures (9 dose points with 3× serial dilution, starting with 30 μM, 0.3% DMSO final). After 72-hr incubation at 37° C. and 5% CO2, in day 5 a volume of 50 μL CellTiter Glo (CTG) reagent was added into cell-containing 96-well plate and the plate was incubated at room temperature for 10 minutes before RLUs (relative light unit) were measured on a microplate reader with luminescence detection module. The RLU value was normalized to survival % and concentration-response curve was plotted using Prism to calculate IC50 (M), pIC50 (−log IC50) and HillSlope value.

[2] = target: T1, human FGFR3 wild type enzyme (cytoplasmic domain) (Homo sapiens, UniProt P22607); experiment: FGFR3 wild type mobility shift assay (enzymatic assay, Caliper); type: biochemical; conditions: 75 μM ATP, 50 minutes at 30° C.
T1 construct: human FGFR3 wild type enzyme (cytoplasmic domain, from Cama Biosciences); purchased Carna Biosciences
Description: FGFR3 Wild Type Mobility Shift Assay (Enzymatic Assay)
(§1) In a final reaction volume of 25 μL, 0.04 ng/μL human FGFR3 wild type enzyme (cytoplasmic domain, from Cama Biosciences) was incubated with 75 μM ATP, 1 μM FL-peptide 30 substrate and 250 nL of testing compound (1% DMSO final) in assay buffer (100 mM HEPES pH 7.4, 10 mM MgCl2, 0.003% Brij35, 1 mM DTT). After incubation for 50 minutes at 30° C. the reaction was stopped with 10 μL of 0.5M EDTA pH 8.0, and then L of reaction mixture was transferred to reading plate and measured on Caliper EZ reader II.

[3] = target: T2, human FGFR3 V555M enzyme (cytoplasmic domain carrying V555M mutation) (Homo sapiens, UniProt P22607, V555M); experiment: FGFR3 V555M mobility shift assay (enzymatic assay, Caliper); type: biochemical; conditions: 30 μM ATP, 45 minutes at 30° C.
T2 construct: cytoplasmic domain carrying V555M mutation, from Carna Biosciences; purchased Carna Biosciences
Description: FGFR3 V555M Mobility Shift Assay (Enzymatic Assay)
as §1, with “FGFR3 V555M” for “FGFR3 wild type”, “(cytoplasmic domain carrying V555M mutation,” for “(cytoplasmic domain,”, “from Carna” for “from Cama”, “with 30” for “with 75”, “for 45” for “for 50”

T1 sequence (P22607 397-806 limits assumed): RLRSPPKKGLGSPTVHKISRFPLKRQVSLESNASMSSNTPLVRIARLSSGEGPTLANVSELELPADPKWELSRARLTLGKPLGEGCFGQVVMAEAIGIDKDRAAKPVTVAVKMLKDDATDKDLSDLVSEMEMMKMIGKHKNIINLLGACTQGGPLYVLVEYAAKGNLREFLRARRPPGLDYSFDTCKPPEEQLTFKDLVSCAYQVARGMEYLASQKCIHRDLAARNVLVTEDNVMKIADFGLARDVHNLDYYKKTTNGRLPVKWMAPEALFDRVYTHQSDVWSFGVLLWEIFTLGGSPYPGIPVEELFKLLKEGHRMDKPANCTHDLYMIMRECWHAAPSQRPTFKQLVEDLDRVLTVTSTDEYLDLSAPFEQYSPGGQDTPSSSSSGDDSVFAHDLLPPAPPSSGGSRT
T2 sequence (P22607 397-806 V555M limits assumed): as the sequence (P22607 397-806 limits assumed) above, with V159M counted along it

SMILES | IC50 [1] [nM] | IC50 [2] [nM] | IC50 [3] [nM]
COCC(Nc1c(-c2nc3ccc(OC)cc3[nH]2)c(=O)[nH]c2cn(C)nc12)c1ncccn1 (single isomer, unassigned) [Compound 12, (S*)-7-((2-methoxy-1-(pyrimidin-2-yl)ethyl)amino)-6-(6-methoxy-1H-benzo[d]imidazol-2-yl)-2-methyl-2H-pyrazolo[4,3-b]pyridin-5 (4H)-one] | 1500 | 18 | 4.25
CCC(Nc1c(-c2nc3ccc(OC)cc3[nH]2)c(=O)[nH]c2cn(C)nc12)c1ncccn1 (single isomer, unassigned) [Compound 17, (R*)-6-(6-Methoxy-1H-benzo[d]imidazol-2-yl)-2-methyl-7-((1-(pyrimidin-2-yl)propyl)-amino)-2H-pyrazolo[4,3-b]pyridin-5 (4H)-one] | 959 | 4.87 | 0.957
COc1cc2[nH]c(-c3c(NC(c4ncccn4)C(C)C)c4nn(C)cc4[nH]c3=O)nc2cn1 (single isomer, unassigned) [Compound 18, (S*)-6-(6-methoxy-1H-imidazo[4,5-c]pyridin-2-yl)-2-methyl-7-((2-methyl-1-(pyrimidin-2-yl)propyl)amino)-2H-pyrazolo[4,3-b]pyridin-5 (4H)-one] | 3120 | 8.51 | 1.69
CC(C)[C@H](Nc1c(-c2nc3ncc(N(C)C)cc3[nH]2)c(=O)[nH]c2cn(C)nc12)c1ncccn1 (single isomer, unassigned) [Compound 23, (S*)-6-(6-(dimethylamino)-1H-imidazo[4,5-b]pyridin-2-yl)-2-methyl-7-((2-methyl-1-(pyrimidin-2-yl)propyl)amino)-2H-pyrazolo[4,3-b]pyridin-5 (4H)-one 0.14 formate] | 943 | 3.52 | 0.401
COc1cc2nc(-c3c(N[C@H](c4ncccn4)C(C)C)c4nn(C)cc4[nH]c3=O)[nH]c2cc1OC (single isomer, unassigned) [Compound 27, (S*)-6-(5,6-dimethoxy-H-benzo[d]imidazol-2-yl)-2-methyl-7-((2-methyl-1-(pyrimidin-2-yl)propyl)amino)-2H-pyrazolo[4,3-b]pyridin-5 (4H)-one] | 722 |  | 
COCCOc1cc2[nH]c(-c3c(NC(c4ncccn4)C(C)C)c4nn(C)cc4[nH]c3=O)nc2cc1OC (single isomer, unassigned) [Compound 36, (S*)-6-(5-methoxy-6-(2-methoxyethoxy)-1H-benzo[d]imidazol-2-yl)-2-methyl-7-((2-methyl-1-(pyrimidin-2-yl)propyl)amino)-2H-pyrazolo[4,3-b]pyridin-5 (4H)-one] | 757 | 2.25 | 0.503
COc1cnc2nc(-c3c(NC(c4ncccn4)C(C)C)c4nn(C)cc4[nH]c3=O)[nH]c2c1 (single isomer, unassigned) [Compound 40, (S*)-6-(6-methoxy-1H-imidazo[4,5-b]pyridin-2-yl)-2-methyl-7-((2-methyl-1-(pyrimidin-2-yl)propyl)amino)-2,4-dihydro-5H-pyrazolo[4,3-b]pyridin-5-one] | 1740 | 5.93 | 0.743
CCC(Nc1c(-c2nc3cc(OC)c(OC)cc3[nH]2)c(=O)[nH]c2cn(CC)nc12)c1ncccn1 (single isomer, unassigned) [Compound 44, (S*)-6-(5,6-dimethoxy-1H-benzo[d]imidazol-2-yl)-2-ethyl-7-((1-(pyrimidin-2-yl)propyl)-amino)-2H-pyrazolo[4,3-b]pyridin-5 (4H)-one] | 2300 | 3.1 | 1.17
COc1cc2nc(-c3c(NC(c4ncccn4)C4CC4)c4nn(C)cc4[nH]c3=O)[nH]c2cc1OC (single isomer, unassigned) [Compound 46, (S*)-7-((cyclopropyl(pyrimidin-2-yl)methyl)amino)-6-(5,6-dimethoxy-1H-benzo[d]-imidazol-2-yl)-2-methyl-2H-pyrazolo[4,3-b]pyridin-5 (4H)-one] | 682 | 2.44 | 0.566
COc1cc(F)c2nc(-c3c(N[C@@H](C)c4ncccn4)c4nn(C)cc4[nH]c3=O)[nH]c2c1 [Compound 2, (S)-6-(4-fluoro-6-methoxy-1H-benzo[d]imidazol-2-yl)-2-methyl-7-((1-(pyrimidin-2-yl)-ethyl)amino)-2H-pyrazolo[4,3-b]pyridin-5 (4H)-one] | 2380 | 2.88 | 0.791
COc1cnc2nc(-c3c(N[C@@H](C)c4ncccn4)c4nn(C)cc4[nH]c3=O)[nH]c2c1 [Compound 3, (S)-6-(6-methoxy-1H-imidazo[4,5-b]pyridin-2-yl)-2-methyl-7-((1-(pyrimidin-2-yl)-ethyl)amino)-2H-pyrazolo[4,3-b]pyridin-5 (4H)-one] | 776 | 1.67 | 0.361
CCn1cc2[nH]c(=O)c(-c3nc4ccc(OC)cc4[nH]3)c(N[C@@H](C)c3ncccn3)c2n1 [Compound 4, (S)-2-ethyl-6-(6-methoxy-1H-benzo[d]imidazol-2-yl)-7-((1-(pyrimidin-2-yl)ethyl)amino)-2H-pyrazolo[4,3-b]pyridin-5 (4H)-one] | 735 | 3.36 | 0.998
CCn1cc2[nH]c(=O)c(-c3nc4cc(OC)c(OC)cc4[nH]3)c(N[C@@H](C)c3ncccn3)c2n1 [Compound 6, (S)-6-(5,6-Dimethoxy-1H-benzo[d]imidazol-2-yl)-2-ethyl-7-((1-(pyrimidin-2-yl)ethyl)-amino)-2H-pyrazolo[4,3-b]pyridin-5 (4H)-one] | 800 | 1.83 | 0.673
CCOc1cc2[nH]c(-c3c(N[C@@H](C)c4ncccn4)c4nn(CC)cc4[nH]c3=O)nc2cc1OC [Compound 8, (S)-6-(6-ethoxy-5-methoxy-1H-benzo[d]imidazol-2-yl)-2-ethyl-7-((1-(pyrimidin-2-yl)-ethyl)amino)-2H-pyrazolo[4,3-b]pyridin-5 (4H)-one] | 766 | 1.15 | 0.376
CC[C@H](Nc1c(-c2nc3cnc(N(C)C)cc3[nH]2)c(=O)[nH]c2cn(C)nc12)c1ncccn1 [Compound 22, (S)-6-(6-(dimethylamino)-1H-imidazo[4,5-c]pyridin-2-yl)-2-methyl-7-((1-(pyrimidin-2-yl)propyl)amino)-2H-pyrazolo[4,3-b]pyridin-5 (4H)-one] | 1250 | 3.62 | 0.743
COc1cc(OC)c2nc(-c3c(N[C@@H](C)c4ncccn4)c4nn(C)cc4[nH]c3=O)[nH]c2c1 [Compound 29, (S)-6-(4,6-Dimethoxy-1H-benzo[d]imidazol-2-yl)-2-methyl-7-((1-(pyrimidin-2-yl)ethyl)-amino)-2H-pyrazolo[4,3-b]pyridin-5 (4H)-one] | 809 | 1.89 | 0.517
COc1cc2[nH]c(-c3c(N[C@@H](C)c4ncccn4)c4nn(C)cc4[nH]c3=O)nc2cn1 [Compound 30, (S)-6-(6-methoxy-1H-imidazo[4,5-c]pyridin-2-yl)-2-methyl-7-((1-(pyrimidin-2-yl)ethyl)-amino)-2H-pyrazolo[4,3-b]pyridin-5 (4H)-one] | 1200 | 1.13 | 0.414
CCn1cc2[nH]c(=O)c(-c3nc4c(OC)cccc4[nH]3)c(N[C@@H](C)c3ncccn3)c2n1 [Compound 32, (S)-2-ethyl-6-(4-methoxy-1H-benzo[d]imidazol-2-yl)-7-((1-(pyrimidin-2-yl)ethyl)amino)-2H-pyrazolo[4,3-b]pyridin-5 (4H)-one] | 1490 | 5.45 | 2.03
CCn1cc2[nH]c(=O)c(-c3nc4c(F)c(OC)c(OC)cc4[nH]3)c(N[C@@H](C)c3ncccn3)c2n1 [Compound 41, (S)-2-ethyl-6-(4-fluoro-5,6-dimethoxy-1H-benzo[d]imidazol-2-yl)-7-((1-(pyrimidin-2-yl)-ethyl)amino)-2H-pyrazolo[4,3-b]pyridin-5 (4H)-one] | 2280 | 3.8 | 1.11
